Values quoted from earlier work, collected in patent publication EP0858808B1, “Peptides for use in wound treatment” (Johnson & Johnson Medical Ltd., priority 1997, dated 2003).

Test system: human fibroblast
Conditions: concentration range 2.5 mM to 25 mM

In the case of Gly-Pro-Ala, the chemotactic activity is listed as “no chemotactic activity”.
